{"source": "patent US20230111672A1", "about": "“COMPOSITIONS AND METHODS FOR PRODUCTION OF RECOMBINANT ADENO-ASSOCIATED VIRUS” (The Regents of the University of California, priority 2020, published 2023)", "type_in_all_cases": "cell-based, human", "key": {"[1]": {"system": "HEK293 cells", "assay": "rAAV titer by qPCR at 96 hrs post transfection, rAAV packaging in HEK293 cells", "details": "HEK293, thymidine added 24 hrs post transfection, harvest at 96 hrs", "description": "To assess the generality of the result, HEK293 cells were tested, using a different packaging method than that used for HEK293T cells. HEK293 cells were seeded at high concentration and incubated for 72 hrs to reach 100% confluency and then transfected with plasmids. Thymidine was added 24 hrs post transfection, and pellets were harvested at 96 hrs post transfection (FIG. 4).\nFIG. 5. HEK293 Cells were seeded at 1.0×10^5 cell/cm′ into 10 cm′ cell culture dish and transfected with the plasmids for rAAV packaging. Thymidine was treated at 24 hrs post transfection and cell pellets were harvested at 96 hrs post transfection. rAAV titer was measured by qPCR in the same method of FIG. 3. Error bars, mean±SD."}, "[2]": {"system": "HEK293T cells", "assay": "rAAV titer following transfection with and without pHelper", "details": "thymidine added at 24 hrs post transfection, harvest at 72 hrs", "excerpt": "Plasmids containing adenoviral genes that promote AAV replication and vector production, such as pHelper, have previously been essential for rAAV packaging. That is, AAV requires co-infection of helper virus or introduction of a DNA-damaging agent to complete life cycle (Yakobson, Koch, and Winocour 1987; Yalklnoglu et al. 1988), functions that in rAAV manufacturing are typically replaced by transfection with a plasmid such as pHelper. The present disclosure provides the use of thymidine as a replacement for pHelper. The positive control cells were transfected with the three plasmids (AAV vector, AAV helper, pHelper) while the negative control cells were transfected without pHelper. In some samples, thymidine was added at 24 hrs post transfection (FIG. 6).\nFIG. 6. HEK293T cells were transfected with plasmids in accordance with the indication and then thymidine was added at 24 hrs post transfection. All cells were harvested at 72 hrs post transfection and rAAV titer were determined. Error bars, mean±SD."}, "[3]": {"system": "HEK293T cells", "assay": "Total cell count prior to harvesting the cell pellet, rAAV packaging cultures", "details": "counted prior to harvest at 72 hrs post transfection", "description": "(§1) The effect of thymidine treatment for rAAV packaging was assessed with the following description. rAAV manufacturing in HEK293T cells was achieved by transfecting cells with the transgene (ss-CAG-eGFP), the adenoviral helper plasmid pHelper, and rAAV2(Rep/Cap) helper plasmid in accordance with the standard protocol of PEI (polyethyleneimine) transfection (Ojala et al. 2018). Thymidine was added onto media without media change at 24 or 48 hrs post transfection and then cell pellets were harvested at 72 hrs post transfection (FIG. 2).\n(§2) The number of total cells was counted for the evaluation of cell growth prior to harvesting the cell pellet (FIG. 3A). […] Next, cell lysate samples were incubated with Benzonase as well as DNase to remove residual plasmid, and rAAV titer with or without thymidine treatment was determined by quantitative polymerase chain reaction (qPCR) with specific primers for the transgene, eGFP (FIG. 3B). rAAV titer was then normalized to total cell count to compare viral titers in vg/cell (viral genomes/cell) (FIG. 3C).\nFIG. 3A-3C. rAAV titer at 72 h with thymidine treatment. HEK293T cells were split into 10 cm′ cell culture dishes at 3.0×10^6 cells/plate and transfected with the plasmids for rAAV packaging. Cell pellets at 72 hrs post transfection were lysed by freezing and thawing and then incubated with Benzonase, followed by DNase. […]"}, "[4]": {"system": "HEK293T cells", "assay": "rAAV titer by qPCR at 72 hrs post transfection, rAAV packaging in HEK293T cells", "description": "as §1, §2\nFIG. 3A-3C. rAAV titer at 72 h with thymidine treatment. HEK293T cells were split into 10 cm′ cell culture dishes at 3.0×10^6 cells/plate and transfected with the plasmids for rAAV packaging. Cell pellets at 72 hrs post transfection were lysed by freezing and thawing and then incubated with Benzonase, followed by DNase. Subsequent Proteinase K digestion released AAV genome ssDNA from the AAV vector, which were subjected into qPCR for measuring rAAV genome copy number. Error bars, mean±SD. *P<0.05, (All statistics are the result of a student's two tailed t-test with paired variance)."}, "[5]": {"system": "HEK 293T cells", "assay": "Cell cycle arrest by thymidine treatment, flow cytometry with DAPI or EdU incorporation", "details": "4 mM thymidine, 24 hrs post treatment", "description": "HEK 293T cells were treated with thymidine and analyzed using flow cytometry with DAPI (4′,6-diamidino-2-phenylindole) or EdU (5-ethynyl-2′-deoxyuridine) incorporation at 24 hrs post treatment.\nFIG. 1A-1B. Verification of cell cycle arrest by thymidine treatment. HEK293T cells were split into 10 cm′ cell culture dishes at 3.0e6 cells/plate. Thymidine stock was prepared with molecular biology grade distilled water at a concentration of 200 mM. The final concentration of thymidine in the culture medium was 4 mM. Two hrs before harvest, cells were incubated with EdU and were harvested for flow cytometry. DAPI staining and EdU assay were performed in accordance with the manufacturer's protocol."}}}
{"smiles": "Cc1cn([C@H]2C[C@H](O)[C@@H](CO)O2)c(=O)[nH]c1=O", "note": "[thymidine]", "values": [{"measurement": "rAAV titer in vg/ml, fold higher than control cells", "setting": "[1]", "result": 1.75, "unit": "fold"}, {"measurement": "rAAV packaging in the absence of pHelper", "setting": "[2]", "result": "rAAV was packaged in the absence of pHelper only when the thymidine was added"}, {"measurement": "Total cell count vs control group", "setting": "[3]", "result": "lower cell count than the control group"}, {"measurement": "rAAV titer in vg/ml, fold higher than control", "setting": "[4]; thymidine treatment 24-72h post transfection, qPCR", "result": 2.77, "unit": "fold"}, {"measurement": "rAAV titer, fold higher than that on control cells", "setting": "[4]; thymidine treatment 24-72h post transfection, qPCR, basis not printed (second value after vg/ml)", "result": 5.38, "unit": "fold"}, {"measurement": "rAAV titer in vg/ml, fold higher than control", "setting": "[4]; thymidine treatment 48-72h post transfection, qPCR", "result": 2.19, "unit": "fold"}, {"measurement": "rAAV titer in vg/cell, fold higher than control", "setting": "[4]; thymidine treatment 48-72h post transfection, qPCR normalized to total cell count", "result": 3.52, "unit": "fold"}, {"measurement": "EdU incorporation", "setting": "[5]; EdU 2 hrs before harvest", "result": "no incorporation has occurred"}, {"measurement": "Cell cycle phase of cell population, total DNA stained by DAPI", "setting": "[5]; flow cytometry", "result": "predominantly in the S-phase section"}]}
